The record followed here is ChEMBL document CHEMBL1201862, “PubChem BioAssay data set” (2004).

“And” between values parts separate entries of the source, which are not always exact repeats. Equal entries are not always repeated. Structures can show the parent of a compound that is named as a salt.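 Each compound was tested at five concentrations against cells in 96-well plates for 48 hours. Here, GI50 denotes the concentration required for 50% inhibition of growth.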 The source made the active and inactive calls. Cut-off read from the data, not from the text of the source: active = GI50 up to about 1.1 µM and inactive = higher.

Test systems include K562; OVCAR-8; SNB-19; SF-295; UO-31; NCI-H522; SK-MEL-28; HL-60; HOP-62; CAKI-1; IGROV-1; EKVX; NCI-H460; HCT-15; HCC 2998; U-251; LOX IMVI; MCF7; UACC-257; DLD-1.
What all share (assay): growth of human tumour cells (NCI), 48 h

For `COc1ccc(N2C(=O)C3c4[nH]c5cc(C)ccc5c4C4CCC(C(C)(C)C)CC4C3C2=O)cc1` (configuration not stated), the GI50 is > 10 µM (inactive) in the assay on K562; 4.88 µM (inactive) in the assay with OVCAR-8; > 10 µM (inactive) in the assay with SNB-19; 7.08 µM (inactive) in the assay on SF-295; > 10 µM (inactive) in the assay with UO-31; 8.63 µM (inactive) in the assay with NCI-H522. For the same compound, the GI50 with SK-MEL-28 is > 10 µM (inactive); in the assay on HL-60 it was > 10 µM (inactive); in the assay on HOP-62, 7.6 µM (inactive); in the assay with CAKI-1, > 10 µM (inactive); with IGROV-1, > 10 µM (inactive); in the assay on EKVX it was 9.1 µM (inactive). For the same compound, the GI50 was 7.62 µM (inactive) in the assay with NCI-H460; above 10 µM in the assay with HCT-15; > 10 µM (inactive) in the assay with HCC 2998; 5.43 µM (inactive) in the assay on U-251; 7.24 µM (inactive) with LOX IMVI; > 10 µM (inactive) with MCF7.
As to `O=C(O)CN1CCCC(Cc2c[nH]c3ccccc23)C1` (configuration not stated), the GI50 with K562 is 40.6 µM (inactive); with OVCAR-8, > 100 µM (inactive); in the assay on SF-295 it was > 100 µM (inactive); with UO-31, > 100 µM (inactive); in the assay on SK-MEL-28, > 100 µM (inactive); in the assay on HOP-62, > 100 µM (inactive). Also, the GI50 in the assay with CAKI-1 was > 100 µM (inactive); in the assay with IGROV-1, > 100 µM (inactive); with EKVX, > 100 µM (inactive); with HCT-15 it was above 100 µM; in the assay with HCC 2998, > 100 µM (inactive); in the assay with LOX IMVI, > 100 µM (inactive). The GI50 in the assay on UACC-257 was > 100 µM (inactive).
On to `NC(=S)N/N=C/c1ccc(OC(=O)COc2ccccc2Cl)cn1`, for which the GI50 in the assay with K562 is 23.1 µM (inactive); in the assay with OVCAR-8 it was 15.7 µM (inactive); in the assay with SNB-19 it was 47.8 µM (inactive); in the assay with SF-295 it was > 62.7 µM (inactive); in the assay on UO-31, 36.8 µM (inactive); in the assay on NCI-H522, 18.1 µM (inactive). Further, the GI50 in the assay with SK-MEL-28 is 65 µM (inactive); in the assay with HL-60, 18.4 µM (inactive); in the assay with HOP-62 it was 20.5 µM (inactive); in the assay on DLD-1, 33 µM (inactive); with CAKI-1 it was 44.2 µM (inactive); with IGROV-1 it was > 93.1 µM (inactive). The GI50 was 56.4 µM (inactive) in the assay with EKVX; 35.2 µM (inactive) with NCI-H460; 39.5 µM in the assay with HCT-15; 36.6 µM (inactive) in the assay on HCC 2998; 25.1 µM (inactive) in the assay on U-251; 27.6 µM (inactive) in the assay with LOX IMVI. In addition, the GI50 in the assay with MCF7 was 10.5 µM (inactive); in the assay on UACC-257 it was 50.1 µM (inactive).
As for `O=C(O)c1cccc2cccc(-c3c4ccc(=O)cc-4oc4cc(O)ccc34)c12`, the GI50 in the assay with K562 is 31 µM (inactive); in the assay on OVCAR-8 it was > 100 µM (inactive); with SNB-19 it was > 100 µM (inactive); with SF-295, 34.8 µM (inactive); in the assay on UO-31, > 100 µM (inactive); with NCI-H522, > 100 µM (inactive). For the same compound, the GI50 is > 100 µM (inactive) with SK-MEL-28; 62.7 µM (inactive) in the assay with HL-60; 16.4 µM (inactive) in the assay on HOP-62; > 100 µM (inactive) in the assay with CAKI-1; 75 µM (inactive) in the assay with IGROV-1; > 100 µM (inactive) in the assay with EKVX. Also, the GI50 in the assay with NCI-H460 was > 100 µM (inactive); in the assay with HCT-15, above 100 µM; in the assay with HCC 2998, > 100 µM (inactive); in the assay on U-251, > 100 µM (inactive); with LOX IMVI, > 100 µM (inactive); with MCF7, > 100 µM (inactive). Further, the GI50 in the assay on UACC-257 is > 100 µM (inactive).
As for `O=C1C[C@H](c2ccccc2)C2(C(=O)c3ccccc3C2=O)[C@@H](c2ccccc2)C1`, the GI50 with K562 was 9.86 µM (inactive); in the assay with OVCAR-8, 35.6 µM (inactive); in the assay with SNB-19, 23.9 µM (inactive); in the assay with SF-295 it was 25.6 µM (inactive); in the assay with UO-31, 33.3 µM (inactive); with NCI-H522, 30.2 µM (inactive). In addition, the GI50 is 19 µM (inactive) in the assay on SK-MEL-28; 73.1 µM (inactive) in the assay on HL-60; 38.5 µM (inactive) with HOP-62; 7.59 µM (inactive) in the assay on CAKI-1; 16.3 µM (inactive) with IGROV-1; 25.8 µM (inactive) with NCI-H460. For the same compound, the GI50 in the assay on HCT-15 is 25.3 µM; in the assay with HCC 2998, 23.3 µM (inactive); in the assay with U-251, 31.5 µM (inactive); in the assay on MCF7, 37.2 µM (inactive).
For `CC1CC2C3CC(F)C4=CC(=O)C=CC4(C)C3(F)C(O)CC2(C)C1(O)C(=O)COC(=O)C(C)(C)C` (configuration not stated), the GI50 was > 100 µM (inactive) in the assay with K562; 64.3 µM (inactive) in the assay with SNB-19; 61.7 µM (inactive) in the assay on SF-295; > 100 µM (inactive) in the assay on UO-31; 71 µM (inactive) in the assay on NCI-H522; 37.2 µM (inactive) with SK-MEL-28. In addition, the GI50 in the assay on HL-60 is > 100 µM (inactive); in the assay on HOP-62, 75.7 µM (inactive); with DLD-1 it was > 100 µM (inactive); in the assay on CAKI-1 it was > 100 µM (inactive); in the assay on IGROV-1 it was 64.1 µM (inactive); with EKVX it was > 100 µM (inactive). Moreover, the GI50 is 47 µM (inactive) in the assay on NCI-H460; above 100 µM in the assay on HCT-15; > 100 µM (inactive) in the assay with HCC 2998; > 100 µM (inactive) in the assay on U-251; > 100 µM (inactive) in the assay with LOX IMVI; 57.9 µM (inactive) in the assay with UACC-257.
As for `O=C1c2ccccc2C(=O)c2c1ccc1c2N=C(c2ccc(F)cc2)CC(c2ccc(Cl)c(Cl)c2)N1` (configuration not stated), the GI50 is 7.16 µM (inactive) with K562; 13.4 µM (inactive) with OVCAR-8; 13.1 µM (inactive) in the assay with SNB-19; 14.6 µM (inactive) in the assay on SF-295; 10.8 µM (inactive) with UO-31; 7.29 µM (inactive) in the assay on NCI-H522. Besides, the GI50 with SK-MEL-28 was 19.3 µM (inactive); in the assay on HL-60 it was 3.94 µM (inactive); in the assay on HOP-62, 22 µM (inactive); with DLD-1, 12.9 µM (inactive); with CAKI-1, 3.27 µM (inactive); in the assay with IGROV-1, 10.3 µM (inactive). The GI50 in the assay on EKVX is 3.96 µM (inactive); in the assay with NCI-H460 it was 16.9 µM (inactive); in the assay on HCT-15, 5.81 µM; in the assay on HCC 2998 it was 13.6 µM (inactive); in the assay on U-251 it was 12.1 µM (inactive); in the assay with LOX IMVI it was 3.94 µM (inactive). Besides, the GI50 in the assay on UACC-257 was 23.7 µM (inactive).
Consider `NC(=O)Nc1cc(O)ccc1/N=N/c1ccc(S(=O)(=O)Nc2ccccn2)cc1`, for which the GI50 with K562, in the assay on OVCAR-8, in the assay with SNB-19, in the assay on SF-295, in the assay with UO-31 and in the assay with NCI-H522 was > 100 µM (inactive) each time. For the same compound, the GI50 with SK-MEL-28, in the assay with HL-60, with HOP-62, with CAKI-1, in the assay on IGROV-1 and in the assay with EKVX was > 100 µM (inactive) each time. Besides, the GI50 in the assay on NCI-H460 is > 100 µM (inactive); in the assay with HCT-15, above 100 µM; with HCC 2998 it was > 100 µM (inactive); with U-251, > 100 µM (inactive); in the assay with LOX IMVI, > 100 µM (inactive); with UACC-257, > 100 µM (inactive).
Turning to `CCC1C[N+]23CCc4c([nH]c5ccccc45)C2CC1CC3` (configuration not stated), the GI50 with K562 is 70.8 µM (inactive); in the assay on OVCAR-8 it was 81.3 µM (inactive); with SF-295, > 100 µM (inactive); with UO-31 it was 41.4 µM (inactive); in the assay on NCI-H522, 55.1 µM (inactive); in the assay with SK-MEL-28, > 100 µM (inactive). Also, the GI50 was > 100 µM (inactive) with HOP-62; 76 µM (inactive) in the assay with DLD-1; 49.1 µM (inactive) with CAKI-1; 91.6 µM (inactive) in the assay on IGROV-1; > 100 µM (inactive) in the assay on EKVX; 49.4 µM (inactive) in the assay on NCI-H460. The GI50 in the assay with HCT-15 is 68.2 µM; in the assay on HCC 2998 it was > 100 µM (inactive); in the assay with U-251 it was 98.6 µM (inactive); in the assay on LOX IMVI it was 68.1 µM (inactive); in the assay on UACC-257, 50.1 µM (inactive).
As for `COC(=O)C1=CC[C@@H]2C(C(=O)O)=CO[C@@H](OC3OC(CO)C(O)C(O)C3O)[C@H]12` (some centres not stated), the GI50 with K562 is > 300 µM (inactive); with OVCAR-8, > 300 µM (inactive); with SNB-19 it was > 300 µM (inactive); in the assay with SF-295, > 150 µM (inactive); with UO-31, > 300 µM (inactive); in the assay on NCI-H522, > 300 µM (inactive). Moreover, the GI50 is > 300 µM (inactive) in the assay on SK-MEL-28; > 300 µM (inactive) in the assay on HL-60; > 300 µM (inactive) with HOP-62; > 189 µM (inactive) with DLD-1; > 300 µM (inactive) in the assay on CAKI-1; > 300 µM (inactive) in the assay with IGROV-1. Further, the GI50 in the assay on EKVX was > 300 µM (inactive); in the assay on NCI-H460, > 300 µM (inactive); with HCT-15, above 300 µM; in the assay with HCC 2998, > 110 µM (inactive); in the assay with U-251, > 300 µM (inactive); with LOX IMVI, > 300 µM (inactive). Moreover, the GI50 with MCF7 was > 114 µM (inactive); with UACC-257 it was > 300 µM (inactive).
Regarding `Nc1ccc2cc3ccc(N)cc3nc2c1` [PROFLAVINE SULFATE], the GI50 in the assay on OVCAR-8 was 1.09 µM (active) and 995 nM (active); in the assay with SF-295, 2.45 µM (inactive) and 1.94 µM (inactive); in the assay on UO-31 it was 690 nM (active) and 652 nM (active); with SK-MEL-28, 2.45 µM (inactive) and 1.88 µM (inactive); with HL-60, 2.62 µM (inactive) and 1.67 µM (inactive); in the assay on HOP-62, 2.47 µM (inactive) and 2.21 µM (inactive). Besides, the GI50 with DLD-1 was 0.771 µM (active); with CAKI-1, 2.18 µM (inactive) and 1.82 µM (inactive); in the assay on EKVX it was 1.24 µM (inactive); in the assay on NCI-H460 it was 528 nM (active) and 485 nM (active); in the assay with HCC 2998, 794 nM (active) and 1.09 µM (active); in the assay with LOX IMVI, 789 nM (active) and 764 nM (active). For the same compound, the GI50 in the assay on MCF7 was 0.638 µM (active); in the assay with UACC-257 it was 1.87 µM (inactive) and 1.49 µM (inactive).
